Our source for the TGI and GI50 values is PubChem BioAssay (NCI).

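Interpolation was linear, between the two tested concentrations surrounding the appropriate level; five concentrations were tested over 48 hours in 96-well plates. GI50: concentration for 50% inhibition of growth. Definition used: TGI = concentration required for complete inhibition of growth.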

Among the test systems are RPMI-8226 leukemia; RXF 393 renal; CAKI-1 renal; LOX IMVI melanoma; NCI-H23 lung; KM12 colon; SF-268 CNS; SF-295 CNS; HL-60(TB) leukemia; OVCAR-5 ovarian.
What all share (assay): growth of human tumour cells (NCI), 48 h

For `O=CC1CCCc2ccccc21` (stereo not given), the TGI with RPMI-8226 leukemia was greater than 65.8 µM; in the assay on RXF 393 renal, greater than 100 µM; in the assay on CAKI-1 renal it was greater than 100 µM; in the assay on LOX IMVI melanoma, greater than 62.4 µM; with NCI-H23 lung, greater than 100 µM; with KM12 colon, greater than 100 µM. Also, the TGI is greater than 31.6 µM in the assay with SF-268 CNS, greater than 100 µM in the assay on SF-295 CNS, greater than 100 µM with HL-60(TB) leukemia and greater than 100 µM in the assay on OVCAR-5 ovarian.

As to `COc1cccc(-n2ncc3c(N/N=C/c4ccncc4)ncnc32)c1`, the GI50 with RPMI-8226 leukemia is greater than 25 µM; with RXF 393 renal, 0.672 µM; in the assay with CAKI-1 renal, 0.769 µM; with LOX IMVI melanoma, 1.01 µM; in the assay with NCI-H23 lung, greater than 25 µM; in the assay with KM12 colon, 2.9 µM. Besides, the GI50 in the assay with SF-268 CNS is greater than 25 µM; with SF-295 CNS, 1.35 µM; in the assay with HL-60(TB) leukemia, 8.66 µM; in the assay with OVCAR-5 ovarian, greater than 25 µM. Besides, the TGI in the assay with RPMI-8226 leukemia, with RXF 393 renal, with CAKI-1 renal, with LOX IMVI melanoma, in the assay with NCI-H23 lung and in the assay on KM12 colon was greater than 25 µM in each case. Also, the TGI with SF-268 CNS, with SF-295 CNS, with HL-60(TB) leukemia and in the assay with OVCAR-5 ovarian was greater than 25 µM each time.

`Cc1ccc(N2C(=O)C3C=CC(n4[nH]c(=O)n(Cc5ccccc5)c4=O)CC3C2=O)cc1` (stereo not given): the TGI in the assay with RPMI-8226 leukemia, with RXF 393 renal, in the assay on CAKI-1 renal, in the assay with LOX IMVI melanoma, in the assay on NCI-H23 lung and with KM12 colon was greater than 100 µM in each case. The TGI in the assay with SF-268 CNS, in the assay with SF-295 CNS, in the assay with HL-60(TB) leukemia and in the assay with OVCAR-5 ovarian was greater than 100 µM in each case.

Consider `Cn1cc(C2=C(c3cccc(OCC(O)CO)c3)C(=O)NC2=O)c2ccccc21` (stereo not given), for which the GI50 in the assay on RPMI-8226 leukemia, in the assay on RXF 393 renal, with CAKI-1 renal, in the assay with LOX IMVI melanoma, in the assay with NCI-H23 lung and with KM12 colon was greater than 25 µM each time. For the same compound, the GI50 with SF-268 CNS, in the assay on SF-295 CNS, in the assay with HL-60(TB) leukemia and in the assay on OVCAR-5 ovarian was greater than 25 µM throughout. For the same compound, the TGI with RPMI-8226 leukemia, in the assay with RXF 393 renal, in the assay on CAKI-1 renal, in the assay on LOX IMVI melanoma, in the assay on NCI-H23 lung and in the assay with KM12 colon was greater than 25 µM in each case. Further, the TGI with SF-268 CNS, in the assay with SF-295 CNS, with HL-60(TB) leukemia and in the assay with OVCAR-5 ovarian was greater than 25 µM in each case.

As for `CN(/N=C/c1cccc2cccnc12)c1ccccc1`, the TGI with RPMI-8226 leukemia, with RXF 393 renal, with CAKI-1 renal, in the assay on LOX IMVI melanoma, in the assay with NCI-H23 lung and in the assay with KM12 colon was greater than 100 µM in each case. For the same compound, the TGI in the assay on SF-268 CNS, with SF-295 CNS, in the assay with HL-60(TB) leukemia and with OVCAR-5 ovarian was greater than 100 µM in each case.

Take `C=C1c2[nH]c3c([N+](=O)[O-])c(OC)ccc3c2CCN1C(C)=O`: the TGI with RPMI-8226 leukemia, in the assay on RXF 393 renal, in the assay with CAKI-1 renal, with LOX IMVI melanoma, with NCI-H23 lung and with KM12 colon was greater than 100 µM throughout. Also, the TGI in the assay with SF-268 CNS, in the assay on SF-295 CNS, in the assay with HL-60(TB) leukemia and in the assay with OVCAR-5 ovarian was greater than 100 µM throughout.

`CCc1ccc(NC(=O)COC(=O)c2cc([N+](=O)[O-])ccc2Sc2nnnn2C)cc1`: the GI50 in the assay with RPMI-8226 leukemia is 6.73 µM; with RXF 393 renal it was 24 µM; in the assay with CAKI-1 renal, 13.7 µM; with LOX IMVI melanoma, 6.75 µM; in the assay on NCI-H23 lung it was 9.79 µM; in the assay on KM12 colon, 19.6 µM. Further, the GI50 in the assay on SF-268 CNS was 14.5 µM; in the assay on SF-295 CNS it was 17.5 µM; in the assay on HL-60(TB) leukemia it was 18.8 µM; in the assay with OVCAR-5 ovarian, 17.2 µM. Further, the TGI in the assay with RPMI-8226 leukemia is 41.4 µM; in the assay on RXF 393 renal, 62 µM; in the assay on CAKI-1 renal, 46.5 µM; in the assay on LOX IMVI melanoma, 22 µM; in the assay with NCI-H23 lung it was 34.6 µM; with KM12 colon it was greater than 100 µM. The TGI in the assay with SF-268 CNS was 70.7 µM; with SF-295 CNS, 49.4 µM; in the assay with HL-60(TB) leukemia, 49.7 µM; in the assay with OVCAR-5 ovarian, 76 µM.

Take `CC[C@H](CO)Nc1nc(NCc2ccccc2)n2ncc(C(C)C)c2n1`: the GI50 is 2.23 µM in the assay on RPMI-8226 leukemia; 0.25 µM with RXF 393 renal; 1.02 µM in the assay with CAKI-1 renal; 1.07 µM with LOX IMVI melanoma; 1.71 µM in the assay on NCI-H23 lung; 0.711 µM with KM12 colon. For the same compound, the GI50 in the assay with SF-268 CNS was 1.82 µM; in the assay on SF-295 CNS it was 0.812 µM; with HL-60(TB) leukemia it was 0.409 µM; in the assay on OVCAR-5 ovarian it was 1.85 µM. Besides, the TGI was determined as 6.93 µM in the assay with RPMI-8226 leukemia; 0.792 µM in the assay on RXF 393 renal; 8.35 µM in the assay with CAKI-1 renal; 10.3 µM with LOX IMVI melanoma; 7.79 µM in the assay on NCI-H23 lung; 2.79 µM in the assay on KM12 colon. The TGI was 7.2 µM in the assay on SF-268 CNS, 4.74 µM in the assay on SF-295 CNS, 2.68 µM with HL-60(TB) leukemia and 15 µM in the assay with OVCAR-5 ovarian.
